What was measured:
Experiment in all cases: viability inhibition at highest dose (% inhibition); higher = more growth inhibition
[1] = system: BT-474 Tam1; conditions: 4-OH-tamoxifen in medium 1 µM; 72 h
Procedure: (§1)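 Percent inhibition of viability (CellTiter-Glo, 72 h) at the highest tested concentration (D5), normalised to DMSO (0%) and 100 µM benzethonium chloride (100%). Resistant lines and the 'in 1µM tamoxifen' arms were tested in 1 µM 4-OH-tamoxifen.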

[2] = system: BT-474 Tam2; conditions: 4-OH-tamoxifen in medium 1 µM; 72 h
Procedure: as §1

[3] = system: BT-474; conditions: 72 h
Procedure: as §1

[4] = system: MCF-7 Tam1; conditions: 4-OH-tamoxifen in medium 1 µM; 72 h
Procedure: as §1

[5] = system: MCF-7; conditions: 72 h
Procedure: as §1

[6] = system: T-47D Tam1; conditions: 4-OH-tamoxifen in medium 1 µM; 72 h
Procedure: as §1

[7] = system: T-47D Tam2; conditions: 4-OH-tamoxifen in medium 1 µM; 72 h
Procedure: as §1

[8] = system: T-47D; conditions: 72 h
Procedure: as §1

[9] = system: ZR-75-1 Tam1; conditions: 4-OH-tamoxifen in medium 1 µM; 72 h
Procedure: as §1

[10] = system: ZR-75-1 Tam2; conditions: 4-OH-tamoxifen in medium 1 µM; 72 h
Procedure: as §1

[11] = system: ZR-75-1; conditions: 72 h
Procedure: as §1

CC(=O)Nc1ccc(C(=O)Nc2ccccc2N)cc1 [Tacedinaline (CI-994)] (drug 1000 nM)
viability inhibition at highest dose [1]: -4.04
viability inhibition at highest dose [2]: -4.77
viability inhibition at highest dose ([3]; 4-OH-tamoxifen in medium 0 µM): 1.78
viability inhibition at highest dose ([3]; 4-OH-tamoxifen in medium 1 µM): -3.82
viability inhibition at highest dose [4]: 0.399
viability inhibition at highest dose ([5]; 4-OH-tamoxifen in medium 0 µM): -10.9
viability inhibition at highest dose ([5]; 4-OH-tamoxifen in medium 1 µM): -11.9
viability inhibition at highest dose [6]: 6.74
viability inhibition at highest dose [7]: 15.3
viability inhibition at highest dose ([8]; 4-OH-tamoxifen in medium 0 µM): 0.774
viability inhibition at highest dose ([8]; 4-OH-tamoxifen in medium 1 µM): 11.3
viability inhibition at highest dose [9]: -0.987
viability inhibition at highest dose [10]: 6.17
viability inhibition at highest dose ([11]; 4-OH-tamoxifen in medium 0 µM): -0.612
viability inhibition at highest dose ([11]; 4-OH-tamoxifen in medium 1 µM): 5.35

COc1nc(N)nc2c1ncn2[C@@H]1O[C@H](CO)[C@@H](O)[C@@H]1O [Nelarabine] (drug 10000 nM)
viability inhibition at highest dose [1]: 0.136
viability inhibition at highest dose [2]: -6.72
viability inhibition at highest dose ([3]; 4-OH-tamoxifen in medium 0 µM): -2.92
viability inhibition at highest dose ([3]; 4-OH-tamoxifen in medium 1 µM): 16.3
viability inhibition at highest dose [4]: 4.67
viability inhibition at highest dose ([5]; 4-OH-tamoxifen in medium 0 µM): 13.2
viability inhibition at highest dose ([5]; 4-OH-tamoxifen in medium 1 µM): -6.84
viability inhibition at highest dose [6]: -2.1
viability inhibition at highest dose [7]: -4.97
viability inhibition at highest dose ([8]; 4-OH-tamoxifen in medium 0 µM): 1.79
viability inhibition at highest dose ([8]; 4-OH-tamoxifen in medium 1 µM): 6.8
viability inhibition at highest dose [9]: 1.44
viability inhibition at highest dose [10]: 2.19
viability inhibition at highest dose ([11]; 4-OH-tamoxifen in medium 0 µM): 11.1
viability inhibition at highest dose ([11]; 4-OH-tamoxifen in medium 1 µM): 4.17

Cc1ccc(-n2nc(C(C)(C)C)cc2NC(=O)Nc2ccc(OCCN3CCOCC3)c3ccccc23)cc1 [Doramapimod (BIRB 796)] (drug 10000 nM)
viability inhibition at highest dose [1]: 21
viability inhibition at highest dose [2]: -5.97
viability inhibition at highest dose ([3]; 4-OH-tamoxifen in medium 0 µM): 3.99
viability inhibition at highest dose ([3]; 4-OH-tamoxifen in medium 1 µM): 15
viability inhibition at highest dose [4]: 9.34
viability inhibition at highest dose ([5]; 4-OH-tamoxifen in medium 0 µM): 17.6
viability inhibition at highest dose ([5]; 4-OH-tamoxifen in medium 1 µM): 19.3
viability inhibition at highest dose [6]: -1.73
viability inhibition at highest dose [7]: 17
viability inhibition at highest dose ([8]; 4-OH-tamoxifen in medium 0 µM): 6.71
viability inhibition at highest dose ([8]; 4-OH-tamoxifen in medium 1 µM): -2.59
viability inhibition at highest dose [9]: 1.82
viability inhibition at highest dose [10]: 2.11
viability inhibition at highest dose ([11]; 4-OH-tamoxifen in medium 0 µM): -1.07
viability inhibition at highest dose ([11]; 4-OH-tamoxifen in medium 1 µM): 0.647

Clc1ccc(C(c2ccccc2Cl)C(Cl)Cl)cc1 (stereo not given) [Mitotane] (drug 10000 nM)
viability inhibition at highest dose [1]: 4.23
viability inhibition at highest dose [2]: 3.56
viability inhibition at highest dose ([3]; 4-OH-tamoxifen in medium 0 µM): -9.37
viability inhibition at highest dose ([3]; 4-OH-tamoxifen in medium 1 µM): -3.54
viability inhibition at highest dose [4]: -2.99
viability inhibition at highest dose ([5]; 4-OH-tamoxifen in medium 0 µM): -8.27
viability inhibition at highest dose ([5]; 4-OH-tamoxifen in medium 1 µM): 0.312
viability inhibition at highest dose [6]: 8.29
viability inhibition at highest dose [7]: 8.17
viability inhibition at highest dose ([8]; 4-OH-tamoxifen in medium 0 µM): -16.5
viability inhibition at highest dose ([8]; 4-OH-tamoxifen in medium 1 µM): -15.2
viability inhibition at highest dose [9]: 1.3
viability inhibition at highest dose [10]: -0.971
viability inhibition at highest dose ([11]; 4-OH-tamoxifen in medium 0 µM): -16.5
viability inhibition at highest dose ([11]; 4-OH-tamoxifen in medium 1 µM): -2.85

COc1ccc(-c2cc3c(C)nc(N)nc3n([C@H]3CC[C@H](OCCO)CC3)c2=O)cn1 (drug 10000 nM)
viability inhibition at highest dose [1]: 100
viability inhibition at highest dose [2]: 94.3
viability inhibition at highest dose ([3]; 4-OH-tamoxifen in medium 0 µM): 96.1
viability inhibition at highest dose ([3]; 4-OH-tamoxifen in medium 1 µM): 100
viability inhibition at highest dose [4]: 67.1
viability inhibition at highest dose ([5]; 4-OH-tamoxifen in medium 0 µM): 79.9
viability inhibition at highest dose ([5]; 4-OH-tamoxifen in medium 1 µM): 82.6
viability inhibition at highest dose [6]: 92.6
viability inhibition at highest dose [7]: 88.2
viability inhibition at highest dose ([8]; 4-OH-tamoxifen in medium 0 µM): 94.6
viability inhibition at highest dose ([8]; 4-OH-tamoxifen in medium 1 µM): 93.7
viability inhibition at highest dose [9]: 86.8
viability inhibition at highest dose [10]: 88.1
viability inhibition at highest dose ([11]; 4-OH-tamoxifen in medium 0 µM): 83.5
viability inhibition at highest dose ([11]; 4-OH-tamoxifen in medium 1 µM): 76.1

C=CC[C@@H]1/C=C(\C)C[C@H](C)C[C@H](OC)[C@H]2O[C@@](O)(C(=O)C(=O)N3CCCC[C@H]3C(=O)O[C@H](/C(C)=C/[C@@H]3CC[C@@H](O)[C@H](OC)C3)[C@H](C)[C@@H](O)CC1=O)[C@H](C)C[C@@H]2OC [Tacrolimus (FK 506)] (drug 10000 nM)
viability inhibition at highest dose [1]: 46.6
viability inhibition at highest dose [2]: 35
viability inhibition at highest dose ([3]; 4-OH-tamoxifen in medium 0 µM): 8.63
viability inhibition at highest dose ([3]; 4-OH-tamoxifen in medium 1 µM): 39.4
viability inhibition at highest dose [4]: 18.8
viability inhibition at highest dose ([5]; 4-OH-tamoxifen in medium 0 µM): 25.3
viability inhibition at highest dose ([5]; 4-OH-tamoxifen in medium 1 µM): 37.4
viability inhibition at highest dose [6]: 27.2
viability inhibition at highest dose [7]: 23.9
viability inhibition at highest dose ([8]; 4-OH-tamoxifen in medium 0 µM): 5.71
viability inhibition at highest dose ([8]; 4-OH-tamoxifen in medium 1 µM): 3.68
viability inhibition at highest dose [9]: 15.5
viability inhibition at highest dose [10]: 11.5
viability inhibition at highest dose ([11]; 4-OH-tamoxifen in medium 0 µM): -3.64
viability inhibition at highest dose ([11]; 4-OH-tamoxifen in medium 1 µM): 16

Reference: the supplement of paper PMC4932681
